In brackets after ≈: the same amount, converted by molar mass.
Key:
Klebsiella pneumoniae [1] = assay: Bacteriostatic activity against Klebsiella pneumoniae ATCC 13883 after 24 hrs by two-fold serial dilution assay; type: functional; settings: ATCC 13883, 24 h
Candida albicans [2] = assay: Antifungal activity against Candida albicans NRRLY 477 assessed as growth inhibition at 1 mg/mL after 24 hrs by agar well diffusion assay; type: functional; settings: NRRLY 477, 24 h, read-out: DIZ
Pseudomonas aeruginosa [3] = assay: Bacteriostatic activity against Pseudomonas aeruginosa ATCC 27953 after 24 hrs by two-fold serial dilution assay; type: functional; settings: ATCC 27953, 24 h
Proteus vulgaris [4] = assay: Bacteriostatic activity against Proteus vulgaris after 24 hrs by two-fold serial dilution assay; type: functional
Pseudomonas aeruginosa [5] = assay: Potency index, ratio of ciprofloxacin MIC to compound MIC for Pseudomonas aeruginosa ATCC 27953; type: functional
Pseudomonas aeruginosa [6] = assay: Antibacterial activity against Pseudomonas aeruginosa ATCC 27953 assessed as growth inhibition at 1 mg/mL after 24 hrs by agar well diffusion assay; type: functional; settings: ATCC 27953, 24 h, read-out: DIZ
Escherichia coli [7] = assay: Antibacterial activity against Escherichia coli ATCC 25922 assessed as growth inhibition at 1 mg/mL after 24 hrs by agar well diffusion assay; type: functional; settings: ATCC 25922, 24 h, read-out: DIZ
Priestia megaterium [8] = assay: Bacteriostatic activity against Bacillus megaterium ATCC 9885 after 24 hrs by two-fold serial dilution assay; type: functional; settings: ATCC 9885, 24 h
Staphylococcus aureus [9] = assay: Antibacterial activity against Staphylococcus aureus ATCC 29213 assessed as growth inhibition at 1 mg/mL after 24 hrs by agar well diffusion assay; type: functional; settings: ATCC 29213, 24 h, read-out: DIZ
Micrococcus luteus [10] = assay: Antibacterial activity against Sarcina luteus assessed as growth inhibition at 1 mg/mL after 24 hrs by agar well diffusion assay; type: functional; settings: read-out: DIZ
Escherichia coli [11] = assay: Bacteriostatic activity against Escherichia coli ATCC 25922 after 24 hrs by two-fold serial dilution assay; type: functional; settings: ATCC 25922, 24 h
Klebsiella pneumoniae [12] = assay: Antibacterial activity against Klebsiella pneumoniae ATCC 13883 assessed as growth inhibition at 1 mg/mL after 24 hrs by agar well diffusion assay; type: functional; settings: ATCC 13883, 24 h, read-out: DIZ
Bacillus spizizenii [13] = assay: Antibacterial activity against Bacillus subtilis ATCC 6633 assessed as growth inhibition at 1 mg/mL after 24 hrs by agar well diffusion assay; type: functional; settings: ATCC 6633, 24 h, read-out: DIZ
Saccharomyces cerevisiae [14] = assay: Fungistatic activity against Saccharomyces cerevisiae after 24 hrs by two-fold serial dilution assay; type: functional
Proteus vulgaris [15] = assay: Antibacterial activity against Proteus vulgaris assessed as growth inhibition at 1 mg/mL after 24 hrs by agar well diffusion assay; type: functional; settings: read-out: DIZ
Priestia megaterium [16] = assay: Antibacterial activity against Bacillus megaterium ATCC 9885 assessed as growth inhibition at 1 mg/mL after 24 hrs by agar well diffusion assay; type: functional; settings: ATCC 9885, 24 h, read-out: DIZ
Saccharomyces cerevisiae [17] = assay: Antifungal activity against Saccharomyces cerevisiae assessed as growth inhibition at 1 mg/mL after 24 hrs by agar well diffusion assay; type: functional; settings: read-out: DIZ
Escherichia coli [18] = assay: Potency index, ratio of ciprofloxacin MIC to compound MIC for Escherichia coli ATCC 25922; type: functional
Bacillus spizizenii [19] = assay: Bacteriostatic activity against Bacillus subtilis ATCC 6633 after 24 hrs by two-fold serial dilution assay; type: functional; settings: ATCC 6633, 24 h
Staphylococcus aureus [20] = assay: Bacteriostatic activity against Staphylococcus aureus ATCC 29213 after 24 hrs by two-fold serial dilution assay; type: functional; settings: ATCC 29213, 24 h
Candida albicans [21] = assay: Fungistatic activity against Candida albicans NRRLY 477 after 24 hrs by two-fold serial dilution assay; type: functional; settings: NRRLY 477, 24 h
Micrococcus luteus [22] = assay: Bacteriostatic activity against Sarcina luteus after 24 hrs by two-fold serial dilution assay; type: functional
Staphylococcus aureus [23] = assay: microbe, parasite or virus in culture; settings: ATCC 29213, 24 h, read-out: DIZ
Description: Antibacterial activity against Staphylococcus aureus ATCC 29213 assessed as growth inhibition at 0.5 mg/mL after 24 hrs by agar well diffusion assay

Bacillus spizizenii [24] = assay: Antibacterial activity against Bacillus subtilis ATCC 6633 assessed as growth inhibition at 0.5 mg/mL after 24 hrs by agar well diffusion assay; type: functional; settings: ATCC 6633, 24 h, read-out: DIZ
Pseudomonas aeruginosa [25] = assay: microbe, parasite or virus in culture; settings: ATCC 27953, 24 h, read-out: DIZ
Description: Antibacterial activity against Pseudomonas aeruginosa ATCC 27953 assessed as growth inhibition at 0.5 mg/mL after 24 hrs by agar well diffusion assay

Priestia megaterium [26] = assay: Antibacterial activity against Bacillus megaterium ATCC 9885 assessed as growth inhibition at 0.5 mg/mL after 24 hrs by agar well diffusion assay; type: functional; settings: ATCC 9885, 24 h, read-out: DIZ
Proteus vulgaris [27] = assay: Antibacterial activity against Proteus vulgaris assessed as growth inhibition at 0.5 mg/mL after 24 hrs by agar well diffusion assay; type: functional; settings: read-out: DIZ
Micrococcus luteus [28] = assay: Antibacterial activity against Sarcina luteus assessed as growth inhibition at 0.5 mg/mL after 24 hrs by agar well diffusion assay; type: functional; settings: read-out: DIZ
Klebsiella pneumoniae [29] = assay: microbe, parasite or virus in culture; settings: ATCC 13883, 24 h, read-out: DIZ
Description: Antibacterial activity against Klebsiella pneumoniae ATCC 13883 assessed as growth inhibition at 0.5 mg/mL after 24 hrs by agar well diffusion assay

Proteus vulgaris [30] = assay: Potency index, ratio of ciprofloxacin MIC to compound MIC for Proteus vulgaris; type: functional
Micrococcus luteus [31] = assay: Potency index, ratio of ciprofloxacin MIC to compound MIC for Sarcina luteus; type: functional
Klebsiella pneumoniae [32] = assay: Potency index, ratio of ciprofloxacin MIC to compound MIC for Klebsiella pneumoniae ATCC 13883; type: functional
Candida albicans [33] = assay: Antifungal activity against Candida albicans NRRLY 477 assessed as growth inhibition at 0.5 mg/mL after 24 hrs by agar well diffusion assay; type: functional; settings: NRRLY 477, 24 h, read-out: DIZ
Saccharomyces cerevisiae [34] = assay: Antifungal activity against Saccharomyces cerevisiae assessed as growth inhibition at 0.5 mg/mL after 24 hrs by agar well diffusion assay; type: functional; settings: read-out: DIZ

SMILES | zone of inhibition at 1000 µg/mL (Candida albicans [2]) [mm] | zone of inhibition at 1000 µg/mL (Pseudomonas aeruginosa [6]) [mm] | zone of inhibition at 1000 µg/mL (Escherichia coli [7]) [mm] | zone of inhibition at 1000 µg/mL (Staphylococcus aureus [9]) [mm] | zone of inhibition at 1000 µg/mL (Micrococcus luteus [10]) [mm] | zone of inhibition at 1000 µg/mL (Klebsiella pneumoniae [12]) [mm] | zone of inhibition at 1000 µg/mL (Bacillus spizizenii [13]) [mm] | zone of inhibition at 1000 µg/mL (Proteus vulgaris [15]) [mm] | zone of inhibition at 1000 µg/mL (Priestia megaterium [16]) [mm] | zone of inhibition at 1000 µg/mL (Saccharomyces cerevisiae [17]) [mm] | further results
C/C(=N\NC(=S)Nc1ccc(C(=O)NCC(=O)O)cc1)c1ccc(C)cc1 | 25 | 32 | 27 | 29 | 25 | 22 | 19 | 21 | 25 | 26 | MIC (Klebsiella pneumoniae [1]): 25 µg/mL (≈ 65 µM); MIC (Pseudomonas aeruginosa [3]): 3.12 µg/mL (≈ 8.12 µM); MIC (Proteus vulgaris [4]): 12.5 µg/mL (≈ 32.5 µM); PI (Pseudomonas aeruginosa [5]): 4; MIC (Priestia megaterium [8]): 12.5 µg/mL (≈ 32.5 µM); MIC (Escherichia coli [11]): 6.25 µg/mL (≈ 16.3 µM); MIC (Saccharomyces cerevisiae [14]): 6.25 µg/mL (≈ 16.3 µM); PI (Escherichia coli [18]): 2; MIC (Bacillus spizizenii [19]): 12.5 µg/mL (≈ 32.5 µM); MIC (Staphylococcus aureus [20]): 6.25 µg/mL (≈ 16.3 µM); MIC (Candida albicans [21]): 25 µg/mL (≈ 65 µM); MIC (Micrococcus luteus [22]): 12.5 µg/mL (≈ 32.5 µM)
C/C(=N\NC(=S)Nc1ccc(C(=O)NCC(=O)O)cc1)c1ccc(Cl)cc1 | 0 | 0 | 0 | 9 | 0 | 0 | 15 | 0 | 14 | 0 | 
C/C(=N\NC(=S)Nc1ccc(C(=O)NCC(=O)O)cc1)c1ccccc1 | 0 | 19 | 19 | 20 | 25 | 18 | 14 | 19 | 18 | 17 | 
O=C(O)CNC(=O)c1ccc(NC(=S)N/N=C/c2ccc([N+](=O)[O-])cc2)cc1 | 0 | 0 | 0 | 11 | 0 | 0 | 15 | 0 | 14 | 0 | 
O=C(O)CNC(=O)c1ccc(NC(=S)N/N=C2/CC(=O)c3ccccc32)cc1 | 0 | 11 | 18 | 28 | 24 | 0 | 9 | 20 | 0 | 12 | 
Cc1ccc(/C=N/NC(=S)Nc2ccc(C(=O)NCC(=O)O)cc2)cc1 | 0 | 0 | 0 | 10 | 24 | 0 | 0 | 20 | 9 | 0 | 
C/C(=N\NC(=S)Nc1ccc(C(=O)NCC(=O)O)cc1)c1ccc(Br)cc1 | 0 | 19 | 23 | 20 | 25 | 19 | 15 | 20 | 17 | 18 | 
O=C(O)CNC(=O)c1ccc(NC(=S)NN=C2CCCCC2)cc1 | 0 | 12 | 0 | 11 | 24 | 0 | 0 | 20 | 9 | 0 | 
O=C(O)CNC(=O)c1ccc(NC(=S)N/N=C/c2ccc(F)cc2)cc1 | 20 | 30 | 31 | 28 | 28 | 30 | 20 | 26 | 19 | 20 | MIC (Klebsiella pneumoniae [1]): 12.5 µg/mL (≈ 33.4 µM); MIC (Pseudomonas aeruginosa [3]): 25 µg/mL (≈ 66.8 µM); MIC (Proteus vulgaris [4]): 12.5 µg/mL (≈ 33.4 µM); MIC (Priestia megaterium [8]): 12.5 µg/mL (≈ 33.4 µM); MIC (Escherichia coli [11]): 6.25 µg/mL (≈ 16.7 µM); MIC (Saccharomyces cerevisiae [14]): 12.5 µg/mL (≈ 33.4 µM); PI (Escherichia coli [18]): 2; MIC (Bacillus spizizenii [19]): 12.5 µg/mL (≈ 33.4 µM); MIC (Staphylococcus aureus [20]): 6.25 µg/mL (≈ 16.7 µM); MIC (Candida albicans [21]): 50 µg/mL (≈ 134 µM); MIC (Micrococcus luteus [22]): 25 µg/mL (≈ 66.8 µM)
O=C(O)c1cn(C2CC2)c2cc(N3CCNCC3)c(F)cc2c1=O [CIPROFLOXACIN] |  |  |  |  |  |  |  |  |  |  | MIC (Klebsiella pneumoniae [1]): 12.5 µg/mL (≈ 37.7 µM); zone of inhibition at 500 µg/mL (Staphylococcus aureus [23]): 20 mm; zone of inhibition at 500 µg/mL (Bacillus spizizenii [24]): 22 mm; zone of inhibition at 500 µg/mL (Pseudomonas aeruginosa [25]): 24 mm; MIC (Proteus vulgaris [4]): 12.5 µg/mL (≈ 37.7 µM); MIC (Priestia megaterium [8]): 6.25 µg/mL (≈ 18.9 µM); MIC (Escherichia coli [11]): 12.5 µg/mL (≈ 37.7 µM); zone of inhibition at 500 µg/mL (Priestia megaterium [26]): 24 mm; zone of inhibition at 500 µg/mL (Proteus vulgaris [27]): 23 mm; zone of inhibition at 500 µg/mL (Micrococcus luteus [28]): 20 mm; MIC (Bacillus spizizenii [19]): 6.25 µg/mL (≈ 18.9 µM); zone of inhibition at 500 µg/mL (Klebsiella pneumoniae [29]): 25 mm; MIC (Micrococcus luteus [22]): 12.5 µg/mL (≈ 37.7 µM)
O=C(O)CNC(=O)c1ccc(NC(=S)N/N=C/c2cccc(Br)c2)cc1 | 0 | 11 | 20 | 18 | 18 | 9 | 13 | 0 | 18 | 11 | 
O=C(O)CNC(=O)c1ccc(NC(=S)N/N=C2/CCc3ccccc32)cc1 | 20 | 28 | 25 | 28 | 25 | 28 | 18 | 20 | 18 | 20 | MIC (Klebsiella pneumoniae [1]): 12.5 µg/mL (≈ 32.7 µM); MIC (Pseudomonas aeruginosa [3]): 6.25 µg/mL (≈ 16.3 µM); MIC (Proteus vulgaris [4]): 12.5 µg/mL (≈ 32.7 µM); PI (Pseudomonas aeruginosa [5]): 2; PI (Proteus vulgaris [30]): 2; MIC (Priestia megaterium [8]): 50 µg/mL (≈ 131 µM); PI (Micrococcus luteus [31]): 2; MIC (Escherichia coli [11]): 12.5 µg/mL (≈ 32.7 µM); MIC (Saccharomyces cerevisiae [14]): 50 µg/mL (≈ 131 µM); PI (Klebsiella pneumoniae [32]): 2; PI (Escherichia coli [18]): 2; MIC (Bacillus spizizenii [19]): 25 µg/mL (≈ 65.4 µM); MIC (Staphylococcus aureus [20]): 6.25 µg/mL (≈ 16.3 µM); MIC (Candida albicans [21]): 12.5 µg/mL (≈ 32.7 µM); MIC (Micrococcus luteus [22]): 12.5 µg/mL (≈ 32.7 µM)
O=C(O)CNC(=O)c1ccc(NC(=S)NN=C(c2ccccc2)c2ccccc2)cc1 | 0 | 12 | 17 | 0 | 0 | 0 | 20 | 0 | 15 | 0 | 
CC(=O)N1CCN(c2ccc(OCC3COC(Cn4ccnc4)(c4ccc(Cl)cc4Cl)O3)cc2)CC1 (stereo not given) [KETOCONAZOLE] |  |  |  |  |  |  |  |  |  |  | MIC (Saccharomyces cerevisiae [14]): 3.12 µg/mL (≈ 5.87 µM); zone of inhibition at 500 µg/mL (Candida albicans [33]): 22 mm; zone of inhibition at 500 µg/mL (Saccharomyces cerevisiae [34]): 23 mm; MIC (Candida albicans [21]): 6.25 µg/mL (≈ 11.8 µM)
